Measured values taken from patent US10827753B2, “Compositions and methods for controlling nematodes” (Monsanto Technology LLC, priority 2007, dated 2020).
Read-outs that look alike come from different tables or passages of the source.

Key:
mice = details: cited from earlier work
[1] = system: sting (Belonolaimus longicaudatus) nematodes; assay: Sting nematode bench top soil assay; type: in vivo
[2] = system: CD-1/Swiss derived albino mice; type: in vivo; details: for mortality, signs of gross toxicity and behavioral changes: three female mice, observed up to 14 days
[3] = system: caspase-3 in rat hepatoma derived H4IIE cells; assay: Caspase-3 activity (DEVD-AMC) after compound exposure in H4IIE cells; type: cell-based; details: concentrations up to 300 μM
Method: Caspase 3 cleaves the tetrapeptide between D and AMC, thus releasing the fluorogenic […] AMC. Following the test article exposure to cells in 96-well plates, medium was aspirated from plates and PBS added to each well. Plates were stored at −80° C. to lyse cells and store samples until further analysis. On the day of analysis, plates were removed from freezer and thawed. Caspase buffer with fluorescent substrate was added to each well and incubated at room temperature for one hour. AMC release was measured in a spectrofluorometer at an excitation wavelength of 360 nm and an emission wavelength of 460 nm. Values are expressed as relative fluorescent units (RFU).

[4] = system: Meloidogyne incognita (RKN); assay: Seed treatment test of root knot nematode on cucumber plants; type: in vivo; details: 20 mg ai/gram seed, cucumber seeds
Method: For a given concentration the chemical is dissolved in 500 ul of acetone and one gram of cucumber seed (RKN test) or soybean seed (SCN test) is added (e.g., 20 mg active ingredient in 500 ul acetone plus 1 gram of seed). The seed solutions are agitated until all seeds were thoroughly covered with the chemical solution. The acetone is then allowed to evaporate by air drying the seeds. The seeds are planted in 2-inch pots containing sandy soil and then the pots are inoculated with 1000 Meloidogyne incognita (RKN) or 1000 Heterodera glycines (SCN) eggs per pot three days after planting. Plants are rated for galling 14 days after egg inoculation for RKN or 28 days after egg inoculation for SCN.

Meloidogyne incognita = assay: Summer field evaluation of pre-plant incorporated compounds on squash; type: in vivo
Procedure, shortened: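 PPI simulation: compound in acetone/Triton X-100 and water mixed into 80% sand/20% silt loam with chopped galled tomato roots, filling top 15 cm of 6 replicate field plots. M. incognita eggs/larvae (100 k per plot) injected 5 cm deep; three-week-old squash cv. Liberator III planted 4 days after treatment.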

[5] = system: Caenorhabditis elegans ced-3(n717) and ced-4(N1162) mutants; assay: Susceptibility of apoptosis-defective C. elegans mutants on NGM agar plates; type: in vivo; details: 10 μg/ml on NGM agar plates

Structure (SMILES): CCOP(=O)(NC(C)C)Oc1ccc(SC)c(C)c1 (stereo not shown) [Fenamiphos, fenamiphos, reference compound]
- oral LD50 in mice (mice): 22.7 mg/kg
- Number of nematodes recovered from treated soil after 3 days incubation with the compound ([1]; Other: 11.1 kg fenamiphos as positive control): 20

Structure (SMILES): c1ccc(-c2noc(-c3cccs3)n2)cc1 [compound 1822]
- mortality, signs of gross toxicity and behavioral changes ([2]; 50 mg/kg oral): all animals survived, gained body weight, and appeared active and healthy
- mortality, signs of gross toxicity and behavioral changes ([2]; 500 mg/kg oral): all animals died within three days
- induction of caspase-3 (apoptosis marker) [3]: no induction of caspase-3
- percent control (galling reduction) relative to the control blank treatment [4]: 76%

Structure (SMILES): Brc1ccc(-c2cnc(-c3cccs3)o2)cc1 [compound 4776]
- mortality, signs of gross toxicity and behavioral changes ([2]; 500 mg/kg oral): two animals died within three days
- oral toxicity ([2]; mice, oral, estimate based on the 50 and 500 mg/kg studies): lower than 500 mg/kg
- Number of nematodes recovered from treated soil after 3 days incubation with the compound ([1]; 2 kg/ha): 16
- Number of nematodes recovered from treated soil after 3 days incubation with the compound ([1]; 4 kg/ha): 19
- Number of nematodes recovered from treated soil after 3 days incubation with the compound ([1]; 10 kg/ha): 20
- percent control (galling reduction) relative to the control blank treatment [4]: 58%

Structure (SMILES): Cc1cc(Cl)ccc1-c1noc(-c2ccco2)n1 [compound 5823]
- 0-3 vigor 16 DAP (Meloidogyne incognita; 4 kg (kg/ha) PPI, squash): 3.0
- 0-3 vigor 21 DAP (Meloidogyne incognita; 4 kg (kg/ha) PPI, squash): 3.0
- feeder root (3 = ave) 31 DAP (Meloidogyne incognita; 4 kg (kg/ha) PPI, squash): 2.7
- gall % 31 DAP (Meloidogyne incognita; 4 kg (kg/ha) PPI, squash): 3%
- root wgt (g) 31 DAP (Meloidogyne incognita; 4 kg (kg/ha) PPI, squash): 22.6 g
- top wgt (lbs) 31 DAP (Meloidogyne incognita; 4 kg (kg/ha) PPI, squash): 1.45 lbs
- total fruit (lbs) (Meloidogyne incognita; 4 kg (kg/ha) PPI, squash): 1.44 lbs
- control of M. incognita (in words) (Meloidogyne incognita; PPI application at 4 kg/ha): excellent control
- induction of caspase-3 (apoptosis marker) [3]: no induction of caspase-3
- difference in susceptibility between wild-type (N2 Bristol) and ced-3 and ced-4 mutants, including time to mortality [5]: No observable phenotypic difference in susceptibility
